Values joined by “and” are separate entries in the source; they are usually repeats but may differ in a detail not shown here. Equal values may be shown once.
Tested on: NCI/ADR-RES complex spheroid viability
Assay: Anticancer human tumor NCI/ADR-RES cell line growth inhibition;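 also: spheroids exposed to compounds for 7 days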;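 as to viability, T/C: 100% = DMSO vehicle treated spheroids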
Settings: for viability, T/C: stronger effect = lower value; for IC50: curve of compound
Source text: Multicellular complex tumor spheroid response to LSD1 Inhibitor Iadademstat in combination with a variety of drugs and investigational agents in selected tumor cell lines
The current study was undertaken to assess response to LSD1 inhibitors in combination with standard-of-care drugs and investigational agents in solid tumor complex spheroid models as well as in the K-562 leukemia. Complex spheroids include a stromal component modeled by human endothelial cells (HUVEC) and fibroblasts modeled by human mesenchymal stem cells (MSCs). The concentration ranges selected for each drug and investigational agent were based upon clinically achievable concentrations if the clinical Cmax of the agent was known.
Compounds. The drugs and investigational agents used in this study are listed on Table 1. All of the agents used, including staurosporine (NSC755774) and gemcitabine (NSC613327), were obtained from the Developmental Therapeutics Program, NCI. FDA-approved anticancer drugs are available from the NCI at http://dtp.nci.nih.gov/branches/dscb/oncology_drugset_explanation.html. Drugs and investigational agents were >95% pure by proton nuclear magnetic resonance (NMR) and liquid chromatography/mass spectrometry (LC/MS). Stock solutions were prepared at 400x in DMSO, stored at -70 degrees C, and diluted in fresh medium prior to their use. The final concentration of DMSO in cell culture wells never exceeded 0.25% (v/v). The FDA-approved anticancer drug set is available from the Developmental Therapeutics Program at https://dtp.cancer.gov/organization/dscb/obtaining/available_plates.htm. All drugs and investigational agents were tested over a range starting from a high concentration at or near the clinical Cmax and decreasing in half-log increments. If the clinical Cmax for an agent had not been determined, the highest concentration tested was 10 microM.
Cell Lines. The patient-derived cancer cell (PDC) lines: 292921-168-R-J2-PDC, K24384-001-R-PDC, and 521955-158-R2-J5-PDC pancreatic carcinomas, 556581-035-R-J1 ovarian carcinoma, 324938-238-R-J1-PDC, 855422-203-R-J1-PDC and 883617-216-R-J1-PDC urothelial bladder carcinomas, 743489-274-T-PDC renal cell carcinoma, 138582-R-J1 Merkel cell tumor, K60290-347-R-J1 and K57222-313-R-J1-PDC glioblastomas, 653999-131-R-J2-PDC, LG0703-F948-PDC, and 349418-098-R-PDC non-small cell lung carcinomas, 885512-296-R-J2-PDC, 171881-019-R-J1-PDC breast carcinomas and 186277-243-T-J2-PDC and 233499-124-R-J2-PDC colon carcinomas were obtained from the NCI Patient-Derived Models Repository (PDMR, https://pdmr.cancer.gov). The established cell lines NCI/ADR-RES (RRID:CVCL_14520 and OVCAR-5 (RRID:CVCL_1628) ovarian carcinomas, 786-O (RRID:CVCL_1051) and A498 (RRID:CVCL_A498) renal cell carcinoma, NCI-H211 (ATCC, cat. CRL-5824; RRID:CVCL_1529), NCI-H196 (ATCC, cat. CRL-5823, RRID:CVCL_1509), SW 1271 (ATCC, cat. CRL-2177, RRID:CVCL_1716) and NCI-H1876 (ATCC, cat. CRL-5902, RRID:CVCL_1503) small cell lung carcinomas, MDA-MB-231 (RRID:CVCL_0062) and MDA-MB-468 (RRID:CVCL_0419)breast carcinomas (10-12). Pooled donor human umbilical vein endothelial cells (HUVEC, Lonza, cat. CC-2519) and human mesenchymal stem cells (hMSC, Lonza, cat. PT-2501) were purchased from Lonza (Walkersville, MD).
Cell Culture. All cells were maintained in an incubator at 37 degrees C and 5% CO2 with 95% humidity. The PDC lines were cultured according to standard operating procedures established by the NCI PDMR (https://pdmr.cancer.gov). Briefly all PDCs were thawed and cultured in Matrigel-coated flasks prepared with a working solution of 1X Ham's F-12 nutrient mix, without supplementation (Invitrogen, Waltham, MA, cat. 11765054), 100 U/mL penicillin-streptomycin (Invitrogen, cat. 15140122), and 2.5% Matrigel (Corning Inc., Corning, NY, cat. 354248) for the first three passages. […]

SMILES | IC50 | viability, T/C (compound 0.000316 µM) | viability, T/C (compound 0.001 µM) | viability, T/C (compound 0.00316 µM) | viability, T/C (compound 0.01 µM) | viability, T/C (compound 0.0316 µM) | viability, T/C (compound 0.1 µM) | viability, T/C (compound 0.316 µM) | viability, T/C (compound 1 µM) | viability, T/C (compound 3.16 µM) | viability, T/C (compound 10 µM) | viability, T/C (compound 0.00949 µM) | viability, T/C (compound 0.03 µM) | viability, T/C (compound 0.0949 µM) | viability, T/C (compound 0.3 µM) | viability, T/C (compound 0.949 µM) | viability, T/C (compound 3 µM) | viability, T/C (compound 0.000949 µM) | viability, T/C (compound 0.003 µM)
CC(C)CC(NC(=O)C(Cc1ccccc1)NC(=O)c1cnccn1)B(O)O (configuration not stated) | 0.00931 µM and 0.00996 µM | 96.1% and 106% | 102% and 107% | 92.5% and 93.3% | 47.3% and 51.2% | 5.97% and 5.35% | 2.36% and 0.51% | – | – | – | – | – | – | – | – | – | – | – | –
CC(C)CC(NC(=O)CNC(=O)c1cc(Cl)ccc1Cl)B1OC(=O)CC(CC(=O)O)(C(=O)O)O1 (configuration not stated) | 0.025 µM and 0.021 µM | 98% and 97.7% | 105% and 96.7% | 103% and 105% | 71.3% and 79.3% | 45.7% and 33.5% | 4.13% and 1.05% | – | – | – | – | – | – | – | – | – | – | – | –
CC(C)c1c(-c2ccccc2)nc2c(C#N)c[nH]n2c1=O | > 10 µM | – | – | – | – | 103% and 102% | 99.6% and 94.7% | 96.5% and 96.3% | 104% | 98.6% and 93.1% | 94.6% and 96.8% | – | – | – | – | – | – | – | –
CC1(C)CCC(CN2CCN(c3ccc(C(=O)NS(=O)(=O)c4ccc(NCC5CCOCC5)c([N+](=O)[O-])c4)c(Oc4cnc5[nH]ccc5c4)c3)CC2)=C(c2ccc(Cl)cc2)C1 | > 10 µM | – | – | – | – | 99.8% and 108% | 108% and 106% | 101% and 106% | 104% and 105% | 101% and 104% | 94.1% and 90% | – | – | – | – | – | – | – | –
CC1COCCN1c1cc(C2(S(C)(=N)=O)CC2)nc(-c2ccnc3[nH]ccc23)n1 (configuration not stated) | > 10 µM and 7.48 µM | – | – | – | – | 101% and 106% | 96% and 110% | 93.8% and 98.5% | 91.3% and 86.3% | 72% and 71.1% | 57.2% and 43.1% | – | – | – | – | – | – | – | –
COc1cc(C2c3cc4c(cc3C(OC3OC5COC(C)OC5C(O)C3O)C3COC(=O)C23)OCO4)cc(OC)c1O (configuration not stated) | > 3 µM | – | – | – | – | – | – | – | – | – | – | 96.8% and 107% | 100% and 104% | 96.4% and 104% | 95.8% and 105% | 96.1% and 98.4% | 93.1% and 90.2% | – | –

The next lines start with results.

IC50 | SMILES | viability, T/C (compound 0.000316 µM) | viability, T/C (compound 0.001 µM) | viability, T/C (compound 0.00316 µM) | viability, T/C (compound 0.01 µM) | viability, T/C (compound 0.0316 µM) | viability, T/C (compound 0.1 µM) | viability, T/C (compound 0.316 µM) | viability, T/C (compound 1 µM) | viability, T/C (compound 3.16 µM) | viability, T/C (compound 10 µM) | viability, T/C (compound 0.00949 µM) | viability, T/C (compound 0.03 µM) | viability, T/C (compound 0.0949 µM) | viability, T/C (compound 0.3 µM) | viability, T/C (compound 0.949 µM) | viability, T/C (compound 3 µM) | viability, T/C (compound 0.000949 µM) | viability, T/C (compound 0.003 µM)
0.013 µM and 0.00727 µM | CC1COCCN1c1cc(-c2ccnn2C)c2ccnc(-c3ccn[nH]3)c2n1 (configuration not stated) | – | – | 89.5% and 71.9% | 61.3% and 41.6% | 11.2% and 7.14% | 3.93% and 1.95% | 2.2% and 2.13% | 4.12% and 1.96% | – | – | – | – | – | – | – | – | – | –
> 3 µM | CCN(c1cc(-c2ccc(CN3CCOCC3)cc2)cc(C(=O)NCc2c(C)cc(C)[nH]c2=O)c1C)C1CCOCC1 | – | – | – | – | – | – | – | – | – | – | 99.6% and 106% | 98.7% and 102% | 98.2% and 104% | 99% and 97.8% | 91.6% and 97.3% | 86.3% and 88% | – | –
0.00718 µM and 0.00706 µM | CC[C@@]1(O)C(=O)OCc2c1cc1n(c2=O)Cc2cc3c(CN(C)C)c(O)ccc3nc2-1 | 102% and 96.9% | 102% and 100% | 78.6% and 75.9% | 39.1% and 39.4% | 7.88% and 7.23% | 2.74% and 2.23% | – | – | – | – | – | – | – | – | – | – | – | –
< 0.000949 µM | CCc1c2c(nc3ccc(O)cc13)-c1cc3c(c(=O)n1C2)COC(=O)[C@]3(O)CC | – | – | – | – | – | – | – | – | – | – | 0.57% and 0.82% | 6.31% and 0.48% | 0.34% and 0.47% | 0.83% and 0.64% | – | – | 4.28% and 3.34% | 2.36% and 1.64%
0.0169 µM and 0.01 µM | COc1cc(Nc2ncc3c(n2)-c2ccc(Cl)cc2C(c2c(F)cccc2OC)=NC3)ccc1C(=O)O | – | – | 95.4% and 84.5% | 64.5% and 50% | 32.7% and 30% | 22.9% and 20.4% | 22.6% and 16.1% | 19.7% and 15.5% | – | – | – | – | – | – | – | – | – | –

From PubChem BioAssay AID1918955 (Molecular Pharmacology Branch, DTP, NCI, 2023)
